Data on two compounds can be found in ChEMBL document CHEMBL2150932, “Structure-activity relationships and molecular modeling of 1,2,4-triazoles as adenosine receptor antagonists” (ACS Med Chem Lett, 2012).

The target in assay [1] is T1, Adenosine receptor A2b (Homo sapiens) (UniProt P29275).
T1 sequence (whole entry): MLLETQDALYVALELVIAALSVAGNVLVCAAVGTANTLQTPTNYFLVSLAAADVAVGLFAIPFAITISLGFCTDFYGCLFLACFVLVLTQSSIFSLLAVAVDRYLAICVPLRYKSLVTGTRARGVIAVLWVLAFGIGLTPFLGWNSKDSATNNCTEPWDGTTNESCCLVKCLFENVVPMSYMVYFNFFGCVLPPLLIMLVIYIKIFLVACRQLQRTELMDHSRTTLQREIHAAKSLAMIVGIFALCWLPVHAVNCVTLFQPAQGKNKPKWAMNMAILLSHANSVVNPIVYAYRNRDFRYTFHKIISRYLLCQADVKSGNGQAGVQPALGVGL
Nature of the assay: Antagonist activity at human A2B adenosine receptor expressed in CHO cells assessed as inhibition of NECA-induced cAMP accumulation at 10 uM after 20 mins. Type of assay: functional, cell-based.

The target in assay [2] is T2, Adenosine receptor A1 (Homo sapiens) (UniProt P30542).
T2 sequence (whole entry): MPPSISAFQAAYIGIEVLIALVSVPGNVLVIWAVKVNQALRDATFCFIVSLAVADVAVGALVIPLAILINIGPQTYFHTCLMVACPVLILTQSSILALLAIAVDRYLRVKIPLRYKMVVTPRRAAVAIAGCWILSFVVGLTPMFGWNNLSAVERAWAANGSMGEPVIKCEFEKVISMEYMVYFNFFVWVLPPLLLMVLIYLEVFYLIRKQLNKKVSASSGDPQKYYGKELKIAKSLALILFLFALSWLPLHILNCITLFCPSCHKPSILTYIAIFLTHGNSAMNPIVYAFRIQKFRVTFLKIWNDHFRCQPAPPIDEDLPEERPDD
Nature of the assay: Inhibition of human A1 adenosine receptor expressed in CHO cells at 10 uM after 60 mins by liquid scintillation counting. Type of assay: cell-based.

The next assay addresses Adenosine receptor A2a (Homo sapiens, UniProt P29274). In words: Displacement of [3H]CGS21680 from human A2A adenosine receptor expressed in HEK293 cells at 10 uM after 60 mins by liquid scintillation counting. Type of assay: cell-based.
Assay [3] has as its target T3, Adenosine receptor A3 (Homo sapiens) (UniProt P0DMS8).
T3 sequence (whole entry): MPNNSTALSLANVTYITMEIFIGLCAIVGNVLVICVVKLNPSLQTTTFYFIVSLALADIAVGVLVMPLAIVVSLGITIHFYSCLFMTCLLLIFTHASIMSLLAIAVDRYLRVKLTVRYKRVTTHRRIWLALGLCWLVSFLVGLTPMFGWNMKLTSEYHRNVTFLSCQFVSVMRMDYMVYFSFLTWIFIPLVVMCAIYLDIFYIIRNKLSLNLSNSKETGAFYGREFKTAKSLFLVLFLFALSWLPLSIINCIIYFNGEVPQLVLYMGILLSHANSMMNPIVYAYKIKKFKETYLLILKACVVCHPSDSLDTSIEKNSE
Nature of the assay: Displacement of […] from human A3 adenosine receptor expressed in CHO cells at 10 uM after 60 mins by liquid scintillation counting. Type of assay: cell-based.

Sequence of Adenosine receptor A2a (P29274 whole entry): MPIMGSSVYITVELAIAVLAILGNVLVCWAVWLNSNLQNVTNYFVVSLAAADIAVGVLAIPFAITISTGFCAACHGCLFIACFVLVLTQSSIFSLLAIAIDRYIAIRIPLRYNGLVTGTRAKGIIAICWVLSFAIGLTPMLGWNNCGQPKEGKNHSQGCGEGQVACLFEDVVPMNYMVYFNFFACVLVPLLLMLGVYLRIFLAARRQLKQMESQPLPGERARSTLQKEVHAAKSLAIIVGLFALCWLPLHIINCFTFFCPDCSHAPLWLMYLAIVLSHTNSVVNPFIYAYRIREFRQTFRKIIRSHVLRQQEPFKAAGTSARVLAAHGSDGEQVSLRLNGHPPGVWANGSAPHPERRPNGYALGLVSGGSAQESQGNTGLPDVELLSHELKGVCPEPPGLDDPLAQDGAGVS

As to `Cc1ccc(-c2n[nH]c(NC(=O)COc3ccccc3F)n2)cc1`, the inhibition was found to be 11% in assay [1], 2% in assay [2], 2% on Adenosine receptor A2a and 50% in assay [3].
As to `Cc1ccccc1-c1n[nH]c(NC(=O)[C@@H](C)Oc2ccccc2)n1`, the inhibition in assay [1] is -3%; in assay [2], 6%; on Adenosine receptor A2a, 26%; in assay [3] it was 48%.
